Test results reported in ChEMBL document CHEMBL3797183, “Rigid amphipathic nucleosides suppress reproduction of the tick-borne encephalitis virus” (Medchemcomm, 2016).

Tests used:
[1] = system: Tick-borne encephalitis virus; test: Antiviral activity against Tick-borne encephalitis virus Absettarov infected in PEK cells assessed as reduction in viral plaque formation compounds preincubated with virus for 1 hr followed by addition of cells with subsequent incubation of 1 hr measured after 6 days by gentian violet staining; format: functional, cell-based
[2] = Cytotoxicity against PEK cells after 24 hrs; format: cell-based, Sus scrofa; details: pig
[3] = system: Tick-borne encephalitis virus; test: Antiviral activity against Tick-borne encephalitis virus Absettarov infected in PEK cells assessed as reduction in viral plaque formation incubated for 1 hr measured after 6 days by gentian violet staining; format: functional, cell-based
[4] = system: Tick-borne encephalitis virus; test: Antiviral activity against Tick-borne encephalitis virus Absettarov infected in PEK cells assessed as reduction in viral plaque formation compounds preincubated with cells for 1 hr followed by addition of virus with subsequent incubation of 1 hr by gentian violet staining; format: functional, cell-based
[5] = Cytotoxicity against PEK cells after 7 days; format: cell-based, Sus scrofa; details: pig
[6] = system: Hepatitis C virus; test: Antiviral activity against HCV JFH-1 infected in human Huh7.5 cells treated for 10 mins measured after 72 hrs by immunocytochemical assay; format: functional, organism-based, Hepacivirus hominis; details: JFH-1, Huh-7
[7] = system: Vesicular stomatitis virus; test: Antiviral activity against VSV infected in African green monkey Vero cells treated for 10 mins measured after 1 to 2 days by crystal violet staining-based assay; format: functional, organism-based
[8] = system: Influenza A virus; test: Antiviral activity against Influenza virus A/PR/8/34 (H1N1) infected in MDCK cells treated for 10 mins measured after 1 hr by neutral red or crystal violet staining-based assay; format: functional, organism-based; details: A/Puerto Rico/8/1934(H1N1)
[9] = system: Influenza A virus; test: Antiviral activity against Influenza virus A/PC/1/73 (H3N2) infected in MDCK cells treated for 10 mins measured after 1 hr by neutral red or crystal violet staining-based assay; format: functional, organism-based
[10] = system: Sindbis virus; test: Antiviral activity against Sindbis virus infected in African green monkey Vero cells treated for 10 mins measured after 1 to 2 days by crystal violet staining-based assay; format: functional, organism-based
[11] = system: Human alphaherpesvirus 2; test: Antiviral activity against HSV2 186 infected in African green monkey Vero cells treated for 10 mins measured after 1 to 2 days by crystal violet staining-based assay; format: functional, cell-based; details: Human alphaherpesvirus 2, strain 186, Vero
[12] = Antiviral activity against Influenza virus A/USSR/90/77 (H1N1) infected in MDCK cells treated for 10 mins measured after 1 hr by neutral red or crystal violet staining-based assay; format: functional, cell-based, Influenza A virus (A/USSR/90/1977(H1N1))
[13] = system: Human alphaherpesvirus 1; test: Antiviral activity against HSV1 KOS infected in African green monkey Vero cells treated for 10 mins measured after 1 to 2 days by crystal violet staining-based assay; format: functional, organism-based; details: Human alphaherpesvirus 1, KOS
[14] = Antiviral activity against Influenza virus A/Aichi/2/68 (H3N2) infected in MDCK cells treated for 10 mins measured after 1 hr by neutral red or crystal violet staining-based assay; format: functional, cell-based, Influenza A virus (A/Aichi/2/1968(H3N2))
[15] = system: Tick-borne encephalitis virus; test: Antiviral activity against 2 PFU Tick-borne encephalitis virus Absettarov infected in PEK cells assessed as inhibition of viral titer at 200 EC50 for simultaneous addition of compound/cells/virus incubated for 1 hr measured after 6 days by gentian violet staining; format: functional
[16] = system: Tick-borne encephalitis virus; test: Antiviral activity against 22 PFU Tick-borne encephalitis virus Absettarov infected in PEK cells assessed as inhibition of viral titer at 200 EC50 for simultaneous addition of compound/cells/virus incubated for 1 hr measured after 6 days by gentian violet staining; format: functional
[17] = system: Tick-borne encephalitis virus; test: Antiviral activity against 2.2x10^5 PFU Tick-borne encephalitis virus Absettarov infected in PEK cells assessed as inhibition of viral titer at 200 EC50 for simultaneous addition of compound/cells/virus incubated for 1 hr measured after 6 days by gentian violet staining; format: functional
[18] = Cytotoxicity against PEK cells assessed as cytopathic effect at 50 uM after 7 days relative to control; format: cell-based, Sus scrofa; details: pig, 168 h
[19] = system: Tick-borne encephalitis virus; test: Antiviral activity against 2.2x10^3 PFU Tick-borne encephalitis virus Absettarov infected in PEK cells assessed as inhibition of viral titer at 200 EC50 for simultaneous addition of compound/cells/virus incubated for 1 hr measured after 6 days by gentian violet staining; format: functional
[20] = system: Tick-borne encephalitis virus; test: Antiviral activity against 2.2x10^2 PFU Tick-borne encephalitis virus Absettarov infected in PEK cells assessed as inhibition of viral titer at 200 EC50 for simultaneous addition of compound/cells/virus incubated for 1 hr measured after 6 days by gentian violet staining; format: functional
[21] = system: Tick-borne encephalitis virus; test: Antiviral activity against 2.2x10^4 PFU Tick-borne encephalitis virus Absettarov infected in PEK cells assessed as inhibition of viral titer at 200 EC50 for simultaneous addition of compound/cells/virus incubated for 1 hr measured after 6 days by gentian violet staining; format: functional

O=c1[nH]c(=O)n([C@H]2C[C@H](O)[C@@H](CO)O2)cc1C#Cc1ccc2ccc3cccc4ccc1c2c34
EC50 [1]: 600 nM
CC50 at 24 h [2]: > 50000 nM
EC50 [3]: 980 nM
EC50 [4]: 42000 nM
CC50 at 168 h [5]: > 50000 nM

O=c1[nH]c(=O)n([C@@H]2O[C@H](CO)[C@@H](O)[C@@H]2O)cc1C#Cc1ccc2c3cccc4cccc(c5cccc1c52)c43
IC50 [6]: 2 nM
EC50 [1]: 40 nM
CC50 at 24 h [2]: > 50000 nM
IC50 [7]: 2 nM
IC50 [8]: 2 nM
EC50 [3]: 18 nM
IC50 [9]: 2 nM
IC50 [10]: 2 nM
IC50 [11]: 2 nM
EC50 [4]: 2700 nM
IC50 [12]: 2 nM
CC50 at 168 h [5]: 4400 nM
IC50 [13]: 2 nM
IC50 [14]: 2 nM

O=c1[nH]c(=O)n([C@H]2C[C@H](O)[C@@H](CO)O2)cc1C#CCOCc1ccc2c3cccc4cccc(c5cccc1c52)c43
inhibition (INH) [15]: 100%
inhibition (INH) [16]: 100%
CC50 at 24 h [2]: > 50000 nM
EC50 [3]: 500 nM
inhibition (INH) [17]: 99.9965%
Activity [18]: 25%
inhibition (INH) [19]: 100%
EC50 [4]: > 50000 nM
inhibition (INH) [20]: 100%
CC50 at 168 h [5]: > 50000 nM
inhibition (INH) [21]: 99.9988%

O=c1[nH]c(=O)n([C@H]2C[C@H](O)[C@@H](CO)O2)cc1C#Cc1ccc2c3cccc4cccc(c5cccc1c52)c43
IC50 [6]: 2 nM
inhibition (INH) [15]: 100%
EC50 [1]: 40 nM
inhibition (INH) [16]: 100%
CC50 at 24 h [2]: > 50000 nM
IC50 [7]: 2 nM
IC50 [8]: 2 nM
EC50 [3]: 24 nM
IC50 [9]: 2 nM
inhibition (INH) [17]: 99.9995%
IC50 [10]: 2 nM
Activity [18]: 25%
IC50 [11]: 2 nM
inhibition (INH) [19]: 100%
EC50 [4]: 1560 nM
IC50 [12]: 2 nM
inhibition (INH) [20]: 100%
CC50 at 168 h [5]: > 50000 nM
IC50 [13]: 2 nM
inhibition (INH) [21]: 99.9988%
IC50 [14]: 2 nM
